From patent publication EP4810040A2, “INHIBITORS OF APOL1 AND METHODS OF USING SAME” (priority 2020, dated 2022)

Molecular target: T1, APOL1 G1 (Homo sapiens, UniProt O14791, I384M/S342G)
T1 sequence (O14791 28-398 S342G/I384M): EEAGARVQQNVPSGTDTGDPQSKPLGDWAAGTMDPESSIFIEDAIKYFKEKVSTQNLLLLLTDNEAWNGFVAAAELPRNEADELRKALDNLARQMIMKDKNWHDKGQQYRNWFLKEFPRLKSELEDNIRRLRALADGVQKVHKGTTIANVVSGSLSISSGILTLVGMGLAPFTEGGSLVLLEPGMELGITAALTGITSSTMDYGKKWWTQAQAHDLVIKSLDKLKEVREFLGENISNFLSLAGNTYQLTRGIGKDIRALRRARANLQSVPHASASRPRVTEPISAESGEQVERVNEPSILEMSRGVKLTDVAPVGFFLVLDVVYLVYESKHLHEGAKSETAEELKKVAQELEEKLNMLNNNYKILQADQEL
Assay: MultiTox-Fluor Multiplex Cytotoxicity Assay, tet-inducible APOL1 G1 T-REx-HEK293 cells
Assay type: cell-based
Design: expressed in transfected cells; host or cells: T-REx HEK293, clone G1 DC3.25 (pAAVS1-Puro-APOL1 G1)
Details: for IC90: HEK293, Multi-Tox Assay, APOL1 variant (G0/G1/G2) of the HEK293 cells not given, read-out: Multi-Tox Assay IC90; for Multi-Tox Assay Max Activity (%): APOL1 variant not given
How it was run: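 Over 24 h at 37 °C, compounds (10-point 3-fold series from 10 µM, duplicate) were co-incubated with 50 ng/mL tetracycline inducing APOL1 G1 in T-REx-HEK293 cells. Viability/cytotoxicity measured by MultiTox-Fluor as dead-to-live fluorescence ratio, expressed as percent of control between uninduced and induced wells and fitted.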

SMILES	IC90	Multi-Tox Assay Max Activity (%)
C[C@H]1C[C@@]2(C[C@@H](c3cn(Cc4ncnc5[nH]ccc45)nn3)N1)OC[C@@H](O)c1cc(Cl)sc12 [Compound 234]	50 to 500 nM	100.0%
Cc1cc(C)nc(CCn2cc([C@@H]3C[C@]4(C[C@H](C)N3)OC[C@@H](O)c3cc(Cl)sc34)nn2)c1 [Compound 235]	50 to 500 nM	100.0%
C[C@H]1C[C@@]2(C[C@@H](c3cn(Cc4ccc(C#N)nc4)nn3)N1)OC[C@@H](O)c1cc(Cl)sc12 [Compound 236]	50 to 500 nM	100.0%
Cc1noc(C)c1Cn1cc([C@@H]2C[C@]3(C[C@H](C)N2)OC[C@@H](O)c2cc(Cl)sc23)nn1 [Compound 237]	50 to 500 nM	
C[C@H]1C[C@@]2(C[C@@H](c3cn(Cc4ccc(S(C)(=O)=O)cc4)nn3)N1)OC[C@@H](O)c1cc(Cl)sc12 [Compound 238]	50 to 500 nM	100%
C[C@H]1C[C@@]2(C[C@@H](c3cn(CC(=O)N4CCCCC4)nn3)N1)OC[C@@H](O)c1cc(Cl)sc12 [Compound 239]	50 to 500 nM	97.0%
C[C@H]1C[C@@]2(C[C@@H](c3cn(CC4(CO)CCOCC4)nn3)N1)OC[C@@H](O)c1cc(Cl)sc12 [Compound 240]	> 500 nM	95.0%
C[C@H]1C[C@@]2(C[C@@H](c3cn(CC4(CO)CC4)nn3)N1)OC[C@@H](O)c1cc(Cl)sc12 [Compound 242]	50 to 500 nM	97.0%
C[C@H]1C[C@@]2(C[C@@H](c3cn(Cc4cnc5cnccn45)nn3)N1)OC[C@@H](O)c1cc(Cl)sc12 [Compound 243]	50 to 500 nM	98.0%
C[C@H]1C[C@@]2(C[C@@H](c3cn(CCO)nn3)N1)OC[C@@H](O)c1cc(Cl)sc12 [Compound 244]	50 to 500 nM	100.0%
COc1ccc(Cn2cc([C@@H]3C[C@]4(C[C@H](C)N3)OC[C@@H](O)c3cc(Cl)sc34)nn2)cc1F [Compound 245]	50 to 500 nM	
C[C@H]1C[C@@]2(C[C@@H](c3cn(C[C@@H](O)CO)nn3)N1)OC[C@@H](O)c1cc(Cl)sc12 [Compound 246]	50 to 500 nM	97.0%
C[C@H]1C[C@@]2(C[C@@H](c3cn(CC(C)(C)O)nn3)N1)OC[C@@H](O)c1cc(Cl)sc12 [Compound 247]	> 500 nM	91.0%
C[C@H]1C[C@@]2(C[C@@H](c3cn(Cc4cncs4)nn3)N1)OC[C@@H](O)c1cc(Cl)sc12 [Compound 248]	50 to 500 nM	101.0%
C[C@H]1C[C@@]2(C[C@@H](c3cn(Cc4ccc5nc(O)[nH]c5c4)nn3)N1)OC[C@@H](O)c1cc(Cl)sc12 [Compound 249]	> 500 nM	92.0%
C[C@H]1C[C@@]2(C[C@@H](c3cn(CC4CCC4)nn3)N1)OC[C@@H](O)c1cc(Cl)sc12 [Compound 250]	50 to 500 nM	95.0%
Cc1nccn1CCCn1cc([C@@H]2C[C@]3(C[C@H](C)N2)OC[C@@H](O)c2cc(Cl)sc23)nn1 [Compound 251]	50 to 500 nM	
C[C@H]1C[C@@]2(C[C@@H](c3cn(CCC(C)(C)O)nn3)N1)OC[C@@H](O)c1cc(Cl)sc12 [Compound 252]	50 to 500 nM	100.0%
C[C@H]1C[C@@]2(C[C@@H](c3cn(Cc4ccc(C#N)cc4)nn3)N1)OC[C@@H](O)c1cc(Cl)sc12 [Compound 253]	50 to 500 nM	100.0%
C[C@H]1C[C@@]2(C[C@@H](c3cn(CC4CCC(=O)NC4)nn3)N1)OC[C@@H](O)c1cc(Cl)sc12 (stereo partly drawn) [Compound 254]	> 500 nM	92.0%
C[C@H]1C[C@@]2(C[C@@H](c3cn(CC#N)nn3)N1)OC[C@@H](O)c1cc(Cl)sc12 [Compound 255]	50 to 500 nM	100.0%
